Patent US8334382B2, “Substituted biaryl piperazinyl-pyridine analogues” (Neurogen Corporation, priority 2004, dated 2012)

What was measured:
human capsaicin receptor = target: T1, human capsaicin receptor (Homo sapiens, UniProt Q8NER1); experiment: Calcium mobilization assay, determination of antagonist activity; type: cell-based; settings: capsaicin at EC50; cells expressing human capsaicin receptor; Example 6
T1 construct: expressed in transfected cells; host or cells: HEK293, stably transfected with pBK-CMV construct
T1 sequence (Q8NER1 whole entry): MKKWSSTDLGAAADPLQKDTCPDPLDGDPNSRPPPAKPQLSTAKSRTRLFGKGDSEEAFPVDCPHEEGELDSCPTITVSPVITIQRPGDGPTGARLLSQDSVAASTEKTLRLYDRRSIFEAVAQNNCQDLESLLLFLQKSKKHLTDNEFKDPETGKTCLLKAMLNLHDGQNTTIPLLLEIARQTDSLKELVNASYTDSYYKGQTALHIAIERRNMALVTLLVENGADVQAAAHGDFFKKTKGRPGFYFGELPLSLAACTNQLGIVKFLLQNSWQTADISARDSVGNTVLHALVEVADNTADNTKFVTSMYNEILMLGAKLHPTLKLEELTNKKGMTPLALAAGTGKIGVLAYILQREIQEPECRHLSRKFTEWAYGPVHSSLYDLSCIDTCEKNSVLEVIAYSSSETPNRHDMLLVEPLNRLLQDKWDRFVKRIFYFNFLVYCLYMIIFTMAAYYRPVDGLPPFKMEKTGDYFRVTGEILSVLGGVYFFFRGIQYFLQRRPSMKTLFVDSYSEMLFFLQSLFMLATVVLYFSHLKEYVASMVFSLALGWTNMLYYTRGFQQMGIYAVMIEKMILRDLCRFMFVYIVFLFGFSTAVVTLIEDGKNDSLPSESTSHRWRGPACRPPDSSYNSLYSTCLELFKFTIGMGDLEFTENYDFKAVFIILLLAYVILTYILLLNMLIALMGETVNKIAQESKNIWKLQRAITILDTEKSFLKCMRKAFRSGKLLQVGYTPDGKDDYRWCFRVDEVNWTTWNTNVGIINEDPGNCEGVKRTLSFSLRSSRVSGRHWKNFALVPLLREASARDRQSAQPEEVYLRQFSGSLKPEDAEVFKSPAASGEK
Summary of the method: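 HEK293 cells stably expressing full-length human TRPV1, loaded with Fluo-3 AM in KRH buffer pH 7.4, preincubated with compound (final 1-5 µM) in the dark at room temperature for 0.5-6 h, then stimulated with capsaicin at its EC50. FLIPR fluorescence gave IC50 as concentration halving the capsaicin response.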

VR = settings: binds to VR with no more than moderate affinity; cited from earlier work

Compound	IC50 (human capsaicin receptor)	Ki (VR)
Cc1cc(OCCO)cnc1N1CCN(c2cc(-c3ccc(F)cc3)nc(N3CCC[C@H]3CO)n2)[C@H](C)C1 [Example 184, 2-{[6-((3R)-4-{6-(4-fluorophenyl)-2-[(2S)-2-(hydroxymethyl)pyrrolidin-1-yl]pyrimidin-4-yl}-3-methylpiperazin-1-yl)-5-methylpyridin-3-yl]oxy}ethanol]	≤ 1000 nM	–
C[C@@H]1CN(c2ncc(CCO)cc2Cl)CCN1c1cc(-c2ccc(F)c(Cl)c2)nc(N2CCC[C@H]2C)n1 [Example 185, 2-[5-chloro-6-((3R)-4-{6-(3-chloro-4-fluorophenyl)-2-[(2R)-2-methylpyrrolidin-1-yl]pyrimidin-4-yl}-3-methylpiperazin-1-yl)pyridin-3-yl]ethanol]	≤ 1000 nM	–
C[C@@H]1CN(c2ncc(CCN(C)C)cc2Cl)CCN1c1cc(-c2ccc(F)c(Cl)c2)nc(N2CCC[C@H]2C)n1 [Example 186, 2-[5-chloro-6-((3R)-4-{6-(3-chloro-4-fluorophenyl)-2-[(2R)-2-methylpyrrolidin-1-yl]pyrimidin-4-yl}-3-methylpiperazin-1-yl)pyridin-3-yl]-N,N-dimethylethanamine]	≤ 1000 nM	–
CNCCc1cnc(N2CCN(c3cc(-c4ccc(F)c(Cl)c4)nc(N4CCC[C@H]4C)n3)[C@H](C)C2)c(Cl)c1 [Example 187, 2-[5-chloro-6-((3R)-4-{6-(3-chloro-4-fluorophenyl)-2-[(2R)-2-methylpyrrolidin-1-yl]pyrimidin-4-yl}-3-methylpiperazin-1-yl)pyridin-3-yl]-N-methylethanamine]	≤ 1000 nM	–
Cc1cc(C#N)cnc1N1CCN(c2cc(-c3ccc(F)cc3)nc(N3CCC[C@H]3C)n2)[C@H](C)C1 [Example 188, 6-((3R)-4-{6-(4-fluorophenyl)-2-[(2R)-2-methyl-1-pyrrolidinyl]-4-pyrimidinyl}-3-methyl-1-piperazinyl)-5-methylnicotinonitrile]	≤ 1000 nM	–
Cc1cccnc1N1CCN(c2nc(N3CCC[C@H]3C)nc(-c3ccc(F)cc3)c2F)[C@H](C)C1 [Example 189, 5-fluoro-4-(4-fluorophenyl)-6-[(2R)-2-methyl-4-(3-methylpyridin-2-yl)piperazin-1-yl]-2-[(2R)-2-methylpyrrolidin-1-yl]pyrimidine]	≤ 1000 nM	–
Cl.Cl.Cl.Cl.Cl.Cl.N.N.N.N.N.N.N.N.N.N.N.N.N.N.[O-2].[O-2].[Ru+3].[Ru+3].[Ru+4] [ruthenium red]	–	≥ 140000 nM
